From patent US11351173B2, “Substituted pyrrolo[1,2-a]pyrimidines and their use in the treatment of medical disorders” (Bial—R&D Investments, S.A., priority 2014, dated 2022)
Values after ≈ are worked out from the molar mass of the structure shown.

How the values were obtained:
[1] = molecular target: T1, glucocerebrosidase (Gcase) (Homo sapiens, UniProt P04062); assay: Glucocerebrosidase (Gcase) activation assay, 4-methylumbelliferyl-beta-D-glucopyranoside substrate, fluorescence readout; assay type: biochemical; conditions: for activation at 0.1 µM / Percent Gcase Activation, 0.1 μM Test Compound: test compound at 0.1 μM; for activation at 0.1 µM: read-out: Percent Gcase Activation, 0.1 μM Test Compound; for activation at 1 µM / Percent Gcase Activation, 1 μM Test Compound: test compound at 1.0 μM; for activation at 1 µM: read-out: Percent Gcase Activation, 1 μM Test Compound
T1 construct: micellar solution containing 10 nM GCase and 100 nM saposin C
T1 sequence (P04062 40-536): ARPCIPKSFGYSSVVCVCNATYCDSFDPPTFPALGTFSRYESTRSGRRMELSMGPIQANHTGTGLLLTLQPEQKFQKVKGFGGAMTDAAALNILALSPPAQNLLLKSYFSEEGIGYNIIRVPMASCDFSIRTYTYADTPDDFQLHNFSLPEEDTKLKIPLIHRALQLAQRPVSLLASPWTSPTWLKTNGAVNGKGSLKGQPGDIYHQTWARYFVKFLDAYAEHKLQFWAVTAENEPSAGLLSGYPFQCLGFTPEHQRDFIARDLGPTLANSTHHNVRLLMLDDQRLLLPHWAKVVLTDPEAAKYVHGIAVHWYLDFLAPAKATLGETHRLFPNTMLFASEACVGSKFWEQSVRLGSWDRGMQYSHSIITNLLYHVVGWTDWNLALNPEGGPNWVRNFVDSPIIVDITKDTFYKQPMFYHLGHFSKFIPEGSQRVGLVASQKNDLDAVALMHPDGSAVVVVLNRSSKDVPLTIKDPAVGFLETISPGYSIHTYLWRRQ
In short: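 Readout is endpoint fluorescence (ex 365, em 440 nm) after glycine pH 12.5 stop of a 15-min room-temperature reaction. Enzyme mix: GCase 10 nM plus saposin C 100 nM in 0.37 mol % PS/0.32 mM triton micelles, pH 4.7, compound pre-incubated 30 min; substrate solution 2 mM before 1:1 mixing. Tested at 1.0/0.1 μM, then 3-fold, 8-point series up to 5 μM.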

[2] = Compound solubility in water; conditions: water; for solubility: Compound Solubility in Water

| SMILES | activation at 0.1 µM [1] [%] | activation at 1 µM [1] [%] | solubility [2] [µg/mL] | solubility ([2]; in water) [µg/mL] | Percent Gcase Activation, 0.1 μM Test Compound [1] | Percent Gcase Activation, 1 μM Test Compound [1] | Compound Solubility in Water [2] [µg/mL] |
| --- | --- | --- | --- | --- | --- | --- | --- |
| Cc1cc(C)n2ccc(C(=O)N[C@H]3CC[C@H](OCC4CC(F)(F)C4)CC3)c2n1 [III-95] | 10 to 20 | > 60 | 3.1 (≈ 7.92 µM) |  |  |  |  |
| CCCCO[C@H]1CC[C@H](NC(=O)c2ccn3c(COC)cc(C)nc23)CC1 [III-33] | 10 to 20 | > 60 | 21 (≈ 56.2 µM) |  |  |  |  |
| Cc1cc(C)n2ccc(C(=O)Nc3ccc(N4CCCCC4)cc3)c2n1 [III-17] | < 10 | 30 to 60 | < 0.1 |  |  |  |  |
| Cc1cc(C)n2ccc(C(=O)N[C@H]3CC[C@H](Oc4cccs4)CC3)c2n1 [III-190] | 10 to 20 | > 60 | 4.2 (≈ 11.4 µM) |  |  |  |  |
| CCCOC[C@H]1CC[C@H](NC(=O)c2ccn3c(C)cc(C)nc23)CC1 [III-114] | > 20 | > 60 | 1.3 (≈ 3.78 µM) |  |  |  |  |
| Cc1cc(C)n2ccc(C(=O)NC3CCC4(CCCO4)C3)c2n1 (centres unmarked) [III-146] | < 10 | < 30 | 25.4 (≈ 81 µM) |  |  |  |  |
| CCCCO[C@H]1CC[C@H](NC(=O)c2ccn3c(C(C)C)cc(COC)nc23)CC1 [III-37] | 10 to 20 | > 60 | 18 (≈ 44.8 µM) |  |  |  |  |
| COCCOCc1cc(C)n2ccc(C(=O)N[C@H]3CCCc4ccccc43)c2n1 [III-43] | 10 to 20 | > 60 | 25.2 (≈ 64 µM) |  |  |  |  |
| CCCc1cc(COC)n2ccc(C(=O)NC3(C)CCOc4cc(F)c(F)cc43)c2n1 (centres unmarked) [III-267] | < 10 | > 60 |  | 0.4 (≈ 0.931 µM) |  |  |  |
| CC[C@@H](C)O[C@H]1CC[C@H](NC(=O)c2ccn3c(C)cc(C)nc23)CC1 [III-241] | 10 to 20 | > 60 |  | 11 (≈ 32 µM) |  |  |  |
| CO[C@H]1CC[C@@H](C(C)(C)NC(=O)c2ccn3c(C)cc(C)nc23)CC1 [III-238] | 10 to 20 | > 60 |  | 1.6 (≈ 4.66 µM) |  |  |  |
| Cc1cc(C)n2ccc(C(=O)NC3CCOc4cc(F)ccc43)c2n1 (centres unmarked) [III-196] | 10 to 20 | > 60 | 4.2 (≈ 12.4 µM) |  |  |  |  |
| CCCCO[C@H]1CC[C@H](NC(=O)c2ccn3c(C)cc(NC)nc23)CC1 [III-66] | 10 to 20 | > 60 | 0.4 (≈ 1.12 µM) |  |  |  |  |
| Cc1cc(C)n2ccc(C(=O)NC3CCC4(CCCO4)CC3)c2n1 (centres unmarked) [III-142] |  |  |  |  | * (less than 10% Gcase activation) | + (less than 30% Gcase activation) | 17.4 |
| CCCCO[C@H]1CC[C@H](NC(=O)c2ccn3c(COC)cc(C4CC4)nc23)CC1 [III-268] | > 20 | > 60 |  | 2.1 (≈ 5.26 µM) |  |  |  |
| Cc1cc(C)n2ccc(C(=O)NC3CC=C(CCCO)c4ccccc43)c2n1 (centres unmarked) [III-144] | 10 to 20 | > 60 | 0.8 (≈ 2.13 µM) |  |  |  |  |
| Cc1cc(C)n2ccc(C(=O)Nc3ccc(C)c(-c4ncco4)c3)c2n1 [III-14] |  |  |  |  | *** (greater than 20% Gcase activation) | +++ (Gcase activation greater than 60%) | <1.5 |
| Cc1cc(C)n2ccc(C(=O)NC3CC=C(c4cccs4)CC3)c2n1 (centres unmarked) [III-186] | > 20 | > 60 | 0.2 (≈ 0.569 µM) |  |  |  |  |
| O=C(Nc1ccc(-c2cocn2)cc1)c1ccn2c(C(F)F)cc(C(F)F)nc12 [III-23] | > 20 | > 60 | 0.06 (≈ 0.148 µM) |  |  |  |  |
| Cc1cc(C(F)(F)F)n2ccc(C(=O)Nc3ccc(-c4cocn4)cc3)c2n1 [III-254] | < 10 | < 30 |  | 0.6 (≈ 1.55 µM) |  |  |  |

| SMILES | activation at 0.1 µM [1] [%] | activation at 1 µM [1] [%] | solubility [2] [µg/mL] | solubility ([2]; in water) [µg/mL] | Percent Gcase Activation, 0.1 μM Test Compound [1] | Percent Gcase Activation, 1 μM Test Compound [1] | Compound Solubility in Water [2] [µg/mL] |
| --- | --- | --- | --- | --- | --- | --- | --- |
| CCOC1(C)CCC(NC(=O)c2ccn3c(C)cc(C)nc23)CC1 (centres unmarked) [III-232] | < 10 | < 30 |  | 9.4 (≈ 28.5 µM) |  |  |  |
| Cc1cc(C)n2ccc(C(=O)N[C@H](C)c3ccccc3)c2n1 [III-165] | > 20 | > 60 | 1.1 (≈ 3.75 µM) |  |  |  |  |
| Cc1cc(C)n2ccc(C(=O)NC3Cc4ccc(-c5cscn5)cc4C3)c2n1 (centres unmarked) [III-192] | > 20 | > 60 | 0.01 (≈ 0.0257 µM) |  |  |  |  |
| COC1CC(NC(=O)c2ccn3c(C)cc(C)nc23)c2ccccc21 (centres unmarked) [III-285] | 10 to 20 | > 60 |  | 23.8 (≈ 71 µM) |  |  |  |
| [2H]c1c(C([2H])([2H])[2H])nc2c(C(=O)NC(C)(C)c3ccc(F)cc3)cc([2H])n2c1C([2H])([2H])[2H] [III-160] | > 20 | > 60 | 1.6 (≈ 4.8 µM) |  |  |  |  |
| C#Cc1ccc(NC(=O)c2ccn3c(C)cc(C)nc23)c(CO)c1 [III-213] | < 10 | < 30 |  | 0.7 (≈ 2.19 µM) |  |  |  |
| Cc1ccn2ccc(C(=O)Nc3ccc(-c4ncco4)cc3)c2n1 [III-265] | < 10 | < 30 |  | 2 (≈ 6.28 µM) |  |  |  |
| Cc1cc(C)n2ccc(C(=O)Nc3ccc4c(c3)C(Oc3cccnc3)CC4)c2n1 (centres unmarked) [III-120] | > 20 | > 60 | 0.1 (≈ 0.251 µM) |  |  |  |  |
| COC1CCc2ccc(NC(=O)c3ccn4c(C)cc(C)nc34)cc21 (centres unmarked) [III-119] | > 20 | > 60 | 2.6 (≈ 7.75 µM) |  |  |  |  |
| Cc1cc(C)n2ccc(C(=O)Nc3ccc(-c4cnn(C)c4)cc3)c2n1 [III-12] | > 20 | 30 to 60 | 0.06 (≈ 0.174 µM) |  |  |  |  |
| CCCCCO[C@H]1CC[C@@H](NC(=O)c2ccn3c(C)cc(C)nc23)CC1 [III-202] | > 20 | > 60 |  | 3.6 (≈ 10.1 µM) |  |  |  |
| Cc1cc(C)n2ccc(C(=O)Nc3ccc4c(c3)CCC4)c2n1 [III-148] | > 20 | > 60 | 0.06 (≈ 0.196 µM) |  |  |  |  |
| Cc1cc(C)n2ccc(C(=O)NC3CCCC4(CCCCO4)C3)c2n1 (centres unmarked) [III-81] |  |  |  |  | * (less than 10% Gcase activation) | + (less than 30% Gcase activation) | 9.8 |
| Cc1cc(C)n2ccc(C(=O)NC(C)(C)c3ccccc3)c2n1 [III-91] | > 20 | > 60 | 3 (≈ 9.76 µM) |  |  |  |  |
| COCc1cc(C)nc2c(C(=O)NC(C)(C)c3ccc(-c4cocn4)cc3)ccn12 [III-49] | > 20 | > 60 | 1.7 (≈ 4.2 µM) |  |  |  |  |
| CNCCCCOc1ccc(NC(=O)c2ccn3c(C)cc(C)nc23)cc1 [III-20] | < 10 | < 30 | 20.8 (≈ 56.8 µM) |  |  |  |  |
| COCc1cc(C)n2ccc(C(=O)Nc3ccc(-c4cocn4)cc3)c2n1 [III-50] | > 20 | > 60 | 0.3 (≈ 0.828 µM) |  |  |  |  |
| Cc1cc(C)n2ccc(C(=O)NC3CCC4(CCCCO4)C3)c2n1 (centres unmarked) [III-85] |  |  |  |  | * (less than 10% Gcase activation) |  | 21.3 |
| CC[C@@H](NC(=O)c1ccn2c(C)cc(C)nc12)c1ccccc1 [III-124] | > 20 | > 60 | 1.2 (≈ 3.9 µM) |  |  |  |  |
| CCCO[C@H]1CC[C@H](CNC(=O)c2ccn3c(C)cc(C)nc23)CC1 [III-240] | 10 to 20 | > 60 |  | 21.4 (≈ 62.3 µM) |  |  |  |
